Test results reported in patent publication US8318704B2, “Modulation of neural stem cells and neural progenitor cells” (NeuroNova AB, priority 2002, dated 2012).

What was measured:
[1] = in vitro EC50 listed in the handling of substances table
adult mouse NSC [2] = assay: 3H-thymidine incorporation into DNA of NSC; assay type: cell-based
Protocol: (§1) The anterior lateral wall of the lateral ventricle of 5-6 week old mice was enzymatically dissociated in 0.8 mg/ml hyaluronidase and 0.5 mg/ml trypsin in DMEM containing 4.5 mg/ml glucose and 80 units/ml DNase at 37° C. for 20 min. The cells were gently triturated and mixed with three volumes of Neurosphere medium (DMEM/F12, B27 supplement, 12.5 mM HEPES pH7.4) containing 20 ng/ml EGF (unless otherwise stated), 100 units/ml penicillin and 100 μg/ml streptomycin. After passing through a 70 μm strainer, the cells were pelleted at 160×g for 5 min. The supernatant was subsequently removed and the cells resuspended in Neurosphere medium supplemented as above, plated out in culture dishes and incubated at 37° C. Neurospheres were ready to be split approximately 7 days after plating.
(§2) To split neurosphere cultures, neurospheres were collected by centrifugation at 160×g for 5 min. The neurospheres were resuspended in 0.5 ml Trypsin/EDTA in HBSS (1×), incubated at 37° C. for 2 min and triturated gently to aid dissociation. Following a further 3 min incubation at 37° C. and trituration, 3 volumes of ice cold NSPH-media-EGF were added to stop further trypsin activity. The cells were pelleted at 220×g for 4 min, resuspended in fresh Neurosphere medium supplemented with 20 ng/ml EGF and 1 nM bFGF plated out and incubated at 37° C.
(§3) In assays including pertussis toxin, the toxin was added at 100 ng/ml 24 hours prior to the second passaging. New toxin was added at the same dose in combination with S1P or LPA to the cells and assayed as described above.
To determine thymidine incorporation into DNA, neurospheres were split and seeded in Neurosphere medium as single cells in 96-well plates, 10 000 cells/well. Substances to be measured were added in quadruplicates and cells were incubated at 37° C. for 3 days. 3H-thymidine, 10 uCi/ml, was present the last 24 hours. Cells were harvested on to a filter paper and radioactivity was measured. 3H-thymidine (6,7 Ci/mmol) was from PerkinElmer.

[3] = test system: new born cells in the caudate putamen; assay: Intracerebroventricular infusion, BrdU-positive cells in caudate putamen; assay type: in vivo, rat; conditions: S1P 10 μM pump concentration, lateral ventricle, 0.5 μl/hr for 14 days
Protocol: Arrival of animals: 06.1102 (30 animals), 13.11.02 (30 animals) and 20.11.02 (10 animals): Male Wistar rats, ca. 270 g, Harlan-Winkelmann Germany;
Brain infusion kit II; Alzet osmotic mini-pump model 2002 (volume of pump: 200 μl, plus ca. 30-50 μl volume in tubing/flow-moderator; pumping rate: 0.5 μl/h (=12 μl/d) for 14 days; vehicle solution aCSF (artificial cerebrospinal fluid: 148 mM NaCl, 3 mM KCl, 1.4 mM CaCl2, 0.8 mM MgCl2, 1.5 mM Na2HPO4, 0.2 mM NaH2PO4, pH 7.4, sterile filtration; stored at −20° C.
provided as 1 mg solid, dissolved in DMSO, aliquoted and kept in freezer, thawed and added aCSF to make pump solution, 0.1% DMSO maximum. […]
Quantification in ipsilateral hemisphere: two slices (see point “Immunohistochemistry”) counting 2× one box (0.25 mm^2) in caudate putamen on each section.
S1P (10 μM pump concentration) or vehicle, and BrdU (1 mg/ml pump concentration) was infused into the lateral ventricle of adult male Wistar rats at a rate of 0.5 μl/hr for 14 days. […] BrdU incorporated into the nuclei of proliferating cells was detected by DAB-immunohistochemistry. […] For quantification (FIG. 10), sections were taken in duplicate for each animal and counted manually (see above Methods). Results are expressed as the mean±SEM number of BrdU positive cells/0.25 mm^2 (S1P n=8) (Vehicle n=12) (**p<0.005 relative to Vehicle).

adult mouse NSC [4] = assay: Intracellular ATP assay (cell number) in neurosphere-derived NSC; assay type: cell-based; conditions: for intracellular ATP levels, and hence NSC number, factor alone: S1P 100 nM or EGF 0.1 nM alone, 3 days (FIG. 8); for intracellular ATP levels, and hence cell number, relative to control: 3 days
Protocol: as §1, §2
Mouse neurospheres, cultured as described above, from passage 2, were seeded in DMEM/F12 supplemented with B27 into a 96-well plate as single cells (10000 cells/well) to the substances to be measured were added at the concentrations indicated. After 3 days incubation, intracellular ATP was measured using the ViaLight kit (BioWhittaker) according to the manufacturer's instructions. S1P and LPA were purchased from Avanti Polar Lipids, Inc.
as §3
In the experiment analysing the combinatory effect of S1P and EGF, S1P at 100 nM was co-incubated with 0.1 nM EGF for 3 days.

primary adult mouse NSC = assay: Primary NSC proliferation and neurosphere formation without growth factors; assay type: cell-based; conditions: LPA 10 μM, no EGF, 7 days (FIG. 9)
Protocol: as §1
Anterior lateral wall of the lateral ventricle was dissociated as described in the Methods above (Method A), and the cells resuspended in Neurosphere medium without EGF. The cell suspension was divided into a 24-well plate with triplicates of control (no addition), LPA treated and EGF (1 nM) treated cells. The final concentration of LPA was 10 μM. After 7 days the spheres were counted, inspected for growth and morphology and photographed using a Nikon Eclipse TE300 microscope and Nikon Spot Insight camera.

Molecule | EC50 [1] [nM] | incorporation of tritiated thymidine relative to control (adult mouse NSC [2]; S1P 1-100 nM, 3 days (FIG. 4B)) | BrdU labeling of cells in coronal sections through the caudate putamen relative to vehicle ([3]; adult male Wistar rats) | number of BrdU positive cells/0.25 mm^2 (new born cells) in the caudate putamen relative to vehicle ([3]; n=8, p<0.005 (FIG. 10)) | intracellular ATP levels, and hence NSC number, factor alone (adult mouse NSC [4]) | intracellular ATP levels, and hence cell number, relative to control (adult mouse NSC [4]; S1P 1-100 nM, non-adherent conditions (FIG. 4A)) | incorporation of tritiated thymidine relative to control (adult mouse NSC [2]; LPA 4 nM (FIG. 5B)) | incorporation of tritiated thymidine relative to control (adult mouse NSC [2]; LPA 10 nM (FIG. 5B)) | incorporation of tritiated thymidine relative to control (adult mouse NSC [2]; LPA 10 μM (FIG. 5B)) | intracellular ATP levels, and hence cell number, relative to control (adult mouse NSC [4]; LPA, two phases: 1-10 nM and 0.11-10 μM, non-adherent conditions (FIG. 5A)) | sizes and number of neurospheres versus control (primary adult mouse NSC)
CCCCCCCCCCCCC/C=C/[C@@H](O)[C@@H](N)COP(=O)(O)O [S1P, sphingosine-1-phosphate] | 30 | Greater incorporation | substantially greater number | significant increase | increased | statistically significant increase |  |  |  |  | 
EGF: mitogen (growth factor) for neural progenitors, from BD Biosciences |  |  |  |  | increased |  |  |  |  |  | 
lysophosphatidic acid [LPA] |  |  |  |  |  |  | Greater incorporation | no significant incorporation | Greater incorporation | statistically significant increases | observably greater
